Assay results as given in article PMC11012124, “Synthesis of Novel Triazine-Based Chalcones and 8,9-dihydro-7H-pyrimido[4,5-b][1,4]diazepines as Potential Leads in the Search of Anticancer, Antibacterial and Antifungal Agents” (International Journal of Molecular Sciences, 2024).
≈ marks a conversion by molar mass, not a printed value.

Key:
TK-10 = assay: cells; conditions: Homo sapiens, TK-10, 48 h; for CC50: read-out: LC50
LOX IMVI = assay: cells; conditions: Homo sapiens, 48 h; for CC50: read-out: LC50, LOX IMVI, 48 h
SF-295 = assay: cells; conditions: Homo sapiens, SF-295, 48 h; for CC50: read-out: LC50
NCI/ADR-RES = assay: cells; conditions: Homo sapiens, 48 h
NCI-H226 = assay: cells; conditions: Homo sapiens, NCI-H226, 48 h; for CC50: read-out: LC50
SF-268 = assay: cells; conditions: Homo sapiens, SF-268, 48 h; for CC50: read-out: LC50
SN12C = assay: cells; conditions: Homo sapiens, 48 h; for CC50: read-out: LC50
A498 = assay: cells; conditions: Homo sapiens, A498, 48 h; for CC50: read-out: LC50
OVCAR-5 = assay: cells; conditions: Homo sapiens, OVCAR-5, 48 h; for CC50: read-out: LC50
MCF7 = assay: cells; conditions: Homo sapiens, MCF7, 48 h; for CC50: read-out: LC50
SR = assay: cells; conditions: Homo sapiens, 48 h; for CC50: read-out: LC50
IGROV1 = assay: cells; conditions: Homo sapiens, IGROV-1, 48 h; for CC50: read-out: LC50
OVCAR-3 = assay: cells; conditions: Homo sapiens, OVCAR-3, 48 h; for CC50: read-out: LC50
NCI-H460 = assay: cells; conditions: Homo sapiens, NCI-H460, 48 h; for CC50: read-out: LC50
NCI-H23 = assay: cells; conditions: Homo sapiens, NCI-H23, 48 h; for CC50: read-out: LC50
SK-MEL-2 = assay: cells; conditions: Homo sapiens, SK-MEL-2, 48 h; for CC50: read-out: LC50
HOP-92 = assay: cells; conditions: Homo sapiens, HOP-92, 48 h; for CC50: read-out: LC50
786-0 = assay: cells; conditions: Homo sapiens, 786-0, 48 h; for CC50: read-out: LC50
CCRF-CEM = assay: cells; conditions: Homo sapiens, 48 h; for CC50: read-out: LC50
UACC-257 = assay: cells; conditions: Homo sapiens, UACC-257, 48 h; for CC50: read-out: LC50
K-562 = assay: cells; conditions: Homo sapiens, K562, 48 h; for GI50: K-562, 48 h; for CC50: read-out: LC50
[1] = system: M. tuberculosis ATCC 27294; assay: Antitubercular broth microdilution MIC; type: cell-based; conditions: Mycobacterium tuberculosis; M. tuberculosis ATCC 27294 (H37Rv); read-out: Minimum inhibitory concentration (MIC)
HL-60(TB) = assay: cells; conditions: Homo sapiens, HL-60, 48 h; for CC50: read-out: LC50
MDA-MB-435 = assay: cells; conditions: Homo sapiens, MDA-MB-435, 48 h; for CC50: read-out: LC50
OVCAR-4 = assay: cells; conditions: Homo sapiens, OVCAR-4, 48 h; for CC50: read-out: LC50
SK-MEL-5 = assay: cells; conditions: Homo sapiens, SK-MEL-5, 48 h; for CC50: read-out: LC50
[2] = system: Candida albicans (ATCC 10231); assay: Antifungal broth microdilution (CLSI); type: cell-based; conditions: ATCC10231; Ca: Candida albicans
Experimental: (§1) Several of the obtained triazine derivatives were evaluated against sensitive fungal species comprising of two yeasts (Candida albicans (ATCC 10231), Cryptococcus neoformans (ATCC 32264)), three dermatophytes (Microsporum gypseum (CCC 115), Trichophyton rubrum (CCC 134-2000), Trichophyton mentagrophytes (CCC 202-2000)), and three Aspergillus fungi ((A. [NT] 26934), A. niger (ATCC 9029), and A. flavus (ATCC 9170)). […] Broth microdilution techniques were performed in 96-well microplates according to the Reference Method for Broth Dilution Antifungal Susceptibility Testing of Yeasts, document M27-A3 [86] and of Filamentous Fungi […]-A8 [87]. […] An inoculum suspension (100 μL) was added to each well (final well volume = 200 μL). One growth control well (containing medium, inoculum, and the same amount of DMSO as used for each compound) and one sterility control well (sample, medium, and sterile water instead of inoculum) were included for each fungus tested. Microtiter plates were incubated in a dark, humid chamber at 30 °C for the time necessary for each fungus. Amphotericin B, Terbinafine, Fluconazole and Itraconazole were used as a positive control. The tests were performed in triplicate.

A. flavus (ATCC 9170) = assay: Antifungal broth microdilution (CLSI); type: cell-based; conditions: ATCC9170; Afl: Aspergillus flavus
Experimental: as §1

[3] = system: Trichophyton rubrum (CCC 134-2000); assay: Antifungal broth microdilution (CLSI); type: cell-based; conditions: Tr: Trichophyton rubrum
Experimental: as §1

[4] = system: Cryptococcus neoformans (ATCC 32264); assay: Antifungal broth microdilution (CLSI); type: cell-based; conditions: ATCC32264; Cn: Cryptococcus neoformans
Experimental: as §1

A. niger (ATCC 9029) = assay: Antifungal broth microdilution (CLSI); type: cell-based; conditions: ATCC9029; Ani: Aspergillus niger
Experimental: as §1

[5] = system: Trichophyton mentagrophytes (CCC 202-2000); assay: Antifungal broth microdilution (CLSI); type: cell-based; conditions: Tm: Trichophyton mentagrophytes
Experimental: as §1

For Cc1ccc(/C=C/C(=O)c2ccc(S(=O)(=O)NCCNc3nc(Nc4ccc(F)cc4)nc(N(C)C)n3)cc2)cc1 [24b], the GI50 (TK-10) was 15.2 µM, the CC50 (TK-10) was 61.9 µM and the GI50 (LOX IMVI) was 4.12 µM. The CC50 (LOX IMVI) was 39.3 µM, the GI50 (SF-295) was 11.5 µM and the CC50 (SF-295) was 49.2 µM. The GI50 (NCI/ADR-RES) was 8.4 µM, the CC50 (NCI/ADR-RES; read-out: LC50) was 47.1 µM and the GI50 (NCI-H226) was 10.4 µM. The CC50 (NCI-H226) was 63.9 µM, the GI50 (SF-268) was 8.76 µM and the CC50 (SF-268) was 90.9 µM. The GI50 (SN12C) was 11.2 µM, the CC50 (SN12C) was 48.8 µM and the GI50 (A498) was 12.6 µM. For the same compound, the CC50 (A498) was 51.4 µM, the GI50 (OVCAR-5) was 14.9 µM and the CC50 (OVCAR-5) was 53.7 µM. The GI50 (MCF7) was 2.01 µM, the CC50 (MCF7) was 25.2 µM and the GI50 (SR) was 2.76 µM. The CC50 (SR) was over 100 µM, the GI50 (IGROV1) was 15.1 µM and the CC50 (IGROV1) was 63.6 µM. For the same compound, the GI50 (OVCAR-3) was 11.3 µM, the CC50 (OVCAR-3) was 54.6 µM and the GI50 (NCI-H460) was 4.22 µM. The CC50 (NCI-H460) was 52.3 µM, the GI50 (NCI-H23) was 11.3 µM and the CC50 (NCI-H23) was 50 µM. For the same compound, the GI50 (SK-MEL-2) was 11.2 µM, the CC50 (SK-MEL-2) was 52.3 µM and the GI50 (HOP-92) was 7.63 µM. It also gave a CC50 (HOP-92) of 54 µM, a GI50 (786-0) of 10.5 µM and a CC50 (786-0) of 51 µM. For the same compound, the GI50 (CCRF-CEM) was 5.28 µM, the CC50 (CCRF-CEM) was over 100 µM and the GI50 (UACC-257) was 17.4 µM. The CC50 (UACC-257) was 62.9 µM, the GI50 (K-562) was 3.89 µM and the CC50 (K-562) was over 100 µM. The MIC [1] was 25 µg/mL (≈ 43.4 µM), the GI50 (HL-60(TB)) was 5.58 µM and the CC50 (HL-60(TB)) was over 100 µM. The GI50 (MDA-MB-435) was 6.03 µM, the CC50 (MDA-MB-435) was 61.7 µM and the GI50 (OVCAR-4) was 7.79 µM. The CC50 (OVCAR-4) was over 100 µM, the GI50 (SK-MEL-5) was 8.25 µM and the CC50 (SK-MEL-5) was 45.9 µM.

CN(C)c1nc(NCCNS(=O)(=O)c2ccc(C3=Nc4c(N)nc(N)nc4NC(c4ccc(C(F)(F)F)cc4)C3)cc2)nc(N2CCOCC2)n1 (stereo not drawn) [30g] showed a GI50 (TK-10) of 54.3 µM, a CC50 (TK-10) of over 100 µM and a GI50 (LOX IMVI) of 17.1 µM. For the same compound, the CC50 (LOX IMVI) was 64.1 µM, the GI50 (SF-295) was 21.1 µM and the CC50 (SF-295) was over 100 µM. For the same compound, the GI50 (NCI-H226) was 17.6 µM, the CC50 (NCI-H226) was over 100 µM and the GI50 (SF-268) was 19.9 µM. For the same compound, the CC50 (SF-268) was over 100 µM, the GI50 (SN12C) was 35.7 µM and the CC50 (SN12C) was over 100 µM. It also gave a GI50 (A498) of 24.1 µM, a CC50 (A498) of over 100 µM and a GI50 (OVCAR-5) of 27 µM. For the same compound, the CC50 (OVCAR-5) was over 100 µM, the GI50 (MCF7) was 18.1 µM and the CC50 (MCF7) was over 100 µM. The GI50 (SR) was 18.1 µM, the CC50 (SR) was over 100 µM and the GI50 (IGROV1) was 27 µM. The CC50 (IGROV1) was over 100 µM, the GI50 (OVCAR-3) was 53.9 µM and the CC50 (OVCAR-3) was over 100 µM. For the same compound, the GI50 (NCI-H460) was 36.5 µM, the CC50 (NCI-H460) was over 100 µM and the GI50 (NCI-H23) was 37.6 µM. The CC50 (NCI-H23) was over 100 µM, the GI50 (SK-MEL-2) was 15.8 µM and the CC50 (SK-MEL-2) was 57.8 µM. It also gave a GI50 (HOP-92) of 7.48 µM, a CC50 (HOP-92) of over 100 µM and a GI50 (786-0) of 20.8 µM. The CC50 (786-0) was over 100 µM, the GI50 (CCRF-CEM) was 25.9 µM and the CC50 (CCRF-CEM) was over 100 µM. For the same compound, the MIC [2] was 125 µg/mL (≈ 172 µM), the MIC (A. flavus (ATCC 9170)) was over 250 µg/mL and the MIC [3] was 250 µg/mL (≈ 344 µM). The MIC [4] was 125 µg/mL (≈ 172 µM), the MIC (A. niger (ATCC 9029)) was over 250 µg/mL and the MIC [5] was over 250 µg/mL. It also gave a GI50 (UACC-257) of 20.4 µM, a CC50 (UACC-257) of over 100 µM and a GI50 (K-562) of 29.1 µM. For the same compound, the CC50 (K-562) was over 100 µM, the GI50 (HL-60(TB)) was 27.5 µM and the CC50 (HL-60(TB)) was over 100 µM. For the same compound, the GI50 (MDA-MB-435) was 34.2 µM, the CC50 (MDA-MB-435) was over 100 µM and the GI50 (OVCAR-4) was 37 µM. It also gave a CC50 (OVCAR-4) of over 100 µM, a GI50 (SK-MEL-5) of 15.9 µM and a CC50 (SK-MEL-5) of 57.1 µM.
